Data as given in patent publication US20030108964A1, “Caspase-inhibitory-factor(cif)and uses thereof” (priority 2002, published 2003).

Assays:
[1] = system: R-Csp-6-mediated apoptosis in primary cultures of human neurons; experiment: TUNEL cell death of primary human neurons microinjected with recombinant active caspase-6; assay type: cell-based; conditions: for effect on 17-β-estradiol neuroprotective effect against caspase-6: 10 nM added to 17-β-estradiol
Procedure: (§1) Primary cultures of neurons were established from 12-14 week old foetal brains, according to ethical regulations of the Medical Research Council of Canada and approved by McGill University. Institutional Review Board. Briefly, cortical and subcortical brain tissue is minced, dissociated in 0.25% trypsin for 15 minutes at 37° C. Trypsin is inactivated with 10% serum and 0.1 mg/ml deoxyribonuclease I added before triturating to completely dissociate the cells. The mixture is successively passed through 130 μm and 70 μm filters, and cells plated at 3×10^6/ml on poly-L-lysine coated tissue culture dishes or ACLAR™ (33C; 5 mm; Allied Chemical Corp.) coverslips in phenol-free minimal essential media in Earle's balanced salt solution containing 0.225% sodium bicarbonate, 1 mM sodium pyruvate, 2 mM L-glutamine, 0.1% dextrose, 1×antibiotic Pen-Strep (all products from Gibco-BRL) and 5% decomplemented fetal bovine serum (Hyclone).
The cells attach rapidly and establish intricate neuritic networks within 3 days. Fluorodeoxyuridine (FdU) is added at 1 mM to prevent proliferation of dividing cells. Typically, the culture is composed of 90-95% neurons and 5-10% astrocytes that survive in culture for 4-6 weeks. Experiments on neurons and astrocytes were conducted at 10 days of culture.
Glass micropipettes of 1.0 mm OD and 0.5 mm ID thin-walled glass capillaries with microfilaments (Borosilicate with filament MTW100F-4, World Precise Instrument Co.) were pulled with a Flaming/Brown micropipette puller (P-87) with a tip diameter of […]. Recombinant active caspase-6 or caspase-3 (R-Csp-6 and R-Csp-3 from Pharmingen) were prepared in caspase active buffer containing 20 mM piperazine-N,N′-βis-(2-ethanesulfonic acid) (PIPES), 100 mM NaCl, 10 mM dithiothreitol (DTT), 1 mM EDTA, 0.1% 3-[(3-cholamidopropyl)-dimethylammonio]-2-hydroxy-1-propanesulfonic acid (CHAPS), 10% sucrose, pH 7.2. R-Csp-6 was co-injected with Dextran Texas Red (DTR; at 100 μg/ml) (Cedarlane Laboratories Ltd.) as a fluorescent marker to recognize injected neurons. […] Microinjections were done with the Eppendorf Microinjector 5246 and MIS-5000 Burleigh micromanipulator; injection pressure of 100 hPa, compensation pressure of 50 hPa, and injection time of 0.1 s. The injected volume was 1 nl/shot.
Neurons were fixed in fresh 4% paraformaldehyde/4% sucrose in PBS and permeabilized with 0.1% Triton X-100 in 0.1% sodium citrate. Cell death was detected by TUNEL (TdT-mediated dUTP Nick End Labeling) using the Cell Death Kit I (Roche Molecular Biochemicals) as described by the manufacturer. The percentage of neuronal cell death was determined by the ratio of the number of DTR-TUNEL-double-positive neurons over the total number of DTR-positive neurons.
(§2) All were obtained from Sigma and dissolved as stock solutions in 100% ethanol. Dilutions of 1/1000 was made in culture media immediately before use. The media was changed with fresh solution every 48 hours. Controls received an equivalent amount of ethanol.
(§3) Cycloheximide (Sigma) was made at 1 mg/ml in distilled-water and diluted at 5 and 20 μg/ml in culture media before treatment. To assess the efficiency of cycloheximide as an inhibitor of translation at these concentrations, neurons were labeled with 100 μCi/ml of ^35S-methionine (Easy Tag NEN-DUPONT) for 6 hours in the absence or presence of cycloheximide. Proteins were extracted in NP-40 lysis buffer, immunoprecipitated and separated by 10% polyacrylamide gel electrophoresis. To test the effect of cycloheximide on the neuroprotective effect of 17-β-estradiol, neurons were microinjected with R-Csp-6 and incubated with 10 nM 17-β-estradiol in the absence or presence of cycloheximide for 48 hours.

[2] = system: recombinant active caspase-6 (R-Csp-6); experiment: CIF activity: protein extracts of treated neurons added to recombinant active caspase-6 in vitro (Ac-VEID-AFC); assay type: cell-based, human
Procedure: as §1, §2
as §3, with “hours. To test the effect of cycloheximide on 17-β-estradiol induction of CIF, neurons were incubated with 10 nM 17-β-estradiol in the absence or presence of cycloheximide for 6 hours.” for “hours.”
After treatment, neuron proteins were extracted in caspase lysis buffer (50 mM Hepes pH 7.4, 0.1% CHAPS, 1 mM DTT, 0.1 mM EDTA) for 10 minutes on ice followed by microcentrifugation to remove insoluble material. Protein concentration was determined by bicinchoninic acid (BCA) assay (Pierce). Proteins (10 μg/100 μl assay) were added to 10 ng recombinant active caspase (Pharmingen or BioMol) in caspase assay buffer (20 mM Pipes, 30 mM NaCl, 10 mM DTT, 1 mM EDTA, 0.1% CHAPS, 10% sucrose pH 7.2) and 68.5 μM Ac-VEID-AFC for caspase-6, Ac-DEVD-AFC for caspase-3 and caspase-7, and Ac-IETD-AMC for caspase-8 (BioMol). The caspase-6 activity was measured at 37° C. every 2 minutes for 1 hour to determine the linear range of activity. Based on an AFC or AMC standard curve, the amount of released AFC or AMC was measured and the specific activity of the caspase determined as nmoles released AFC or AMC/pg protein/minute.

[3] = system: endogenous neuronal caspase-6; experiment: Endogenous caspase-6 activity in treated neurons; assay type: cell-based, human; conditions: neurons treated for 48 hours
Procedure: as §1, with “(Hyclone). […] All were obtained from Sigma and dissolved as stock solutions in 100% ethanol. Dilutions of 1/1000 was made in culture media immediately before use. […] Protein concentration was determined by bicinchoninic acid (BCA) assay (Pierce). […] Based on an AFC or AMC standard curve, the amount of released AFC or AMC was measured and the specific activity of the caspase determined as nmoles released AFC or AMC/pg protein/minute.” for “(Hyclone).”

[4] = system: caspase-3-mediated astrocytic cell death; experiment: TUNEL cell death of human astrocytes microinjected with caspase-3; assay type: cell-based; conditions: 10 nM
R-Csp-6 = R-Csp-6 specific activity in presence of treated MCF7 extract; assay type: cell-based, human; conditions: MCF7 extract treated 48 hours; for R-Csp-6 Specific Activity: control 6.15 (0.7); for R-Csp-6 activity remaining (% of control): control 100%
Procedure: After treatment, neuron proteins were extracted in caspase lysis buffer (50 mM Hepes pH 7.4, 0.1% CHAPS, 1 mM DTT, 0.1 mM EDTA) for 10 minutes on ice followed by microcentrifugation to remove insoluble material. Protein concentration was determined by bicinchoninic acid (BCA) assay (Pierce). […] Based on an AFC or AMC standard curve, the amount of released AFC or AMC was measured and the specific activity of the caspase determined as nmoles released AFC or AMC/pg protein/minute.

[5] = system: Human astrocytes extracts, CIF activity; experiment: CIF activity in extracts of treated human astrocytes; assay type: cell-based; conditions: 10 nM, 6 hours
[6] = system: Endogenous Csp-6 in human breast cancer cell line, MCF7; experiment: Endogenous Csp-6 specific activity in treated MCF7 extract; assay type: cell-based; conditions: MCF7 extract treated 48 hours; for Endogenous Csp-6 Specific Activity: control 6.34 (0.02); for Csp-6 activity remaining (% of control): control 100%
[7] = system: protein translation in neurons; experiment: 35S-methionine labelling of neurons to assess inhibition of translation; assay type: cell-based, human; conditions: 5-20 μg/ml
Procedure: as §3, with “hours. To test the effect of cycloheximide on 17-β-estradiol induction of CIF, neurons were incubated with 10 nM 17-β-estradiol in the absence or presence of cycloheximide for 6 hours.” for “hours.”

[8] = 10 μM with 10 nM 17-β-estradiol

CC/C(=C(\c1ccccc1)c1ccc(OCCN(C)C)cc1)c1ccccc1 [tamoxifen]
effect on 17-β-estradiol neuroprotective effect against caspase-6 ([1]; 48 hours): inhibits 17-β-estradiol effect | block of neuroprotective function of 17-β-estradiol against caspase-6 [1, 8]: efficiently blocked | effect on 17-β-estradiol induction of CIF ([2]; 10 nM added to 17-β-estradiol): inhibits 17-β-estradiol effect | block of 17-β-estradiol induced CIF activation [2, 8]: efficiently blocked

C[C@]12CC[C@@H]3c4ccc(O)cc4CC[C@H]3[C@@H]1CC[C@@H]2O [17-β-estradiol]
endogenous caspase-6 activity in treated neurons [3]: inhibits endogenous caspase-6 activity | prevention of caspase-3 mediated astrocytic cell death [4]: could not prevent | R-Csp-6 Specific Activity (R-Csp-6; 1 nM): 3.82 (0.04) nmoles/μg protein/min. | R-Csp-6 activity remaining (% of control) (R-Csp-6; 1 nM): 62% | R-Csp-6 Specific Activity (R-Csp-6; 10 nM): 3.25 (0.03) nmoles/μg protein/min. | R-Csp-6 activity remaining (% of control) (R-Csp-6; 10 nM): 53% | R-Csp-6 Specific Activity (R-Csp-6; 100 nM): 4.30 (0.1) nmoles/μg protein/min. | R-Csp-6 activity remaining (% of control) (R-Csp-6; 100 nM): 70% | CIF activation in astrocytes [5]: CIF is not activated in astrocytes | level of apoptosis of microinjected neurons (TUNEL) ([1]; 10 nM, 48 hours, 5 pg R-Csp-6/cell, R-Csp-6 alone 50%): 20% | protection against caspase-6 ([1]; 10 nM, time study, until 8 days): 50% | protection against caspase-6 mediated apoptosis ([1]; 0.01 or 0.1 nM): not 0.01 or 0.1 nM | protection against caspase-6 mediated apoptosis ([1]; 1 to 100 nM): significant protection | exposure time at which neuronal apoptosis is decreased to maximal levels ([1]; hormone washed away, incubated until 48 hours): 10 min | inhibition of recombinant active caspase-6 in vitro by neuronal protein extracts from treated neurons [2]: inhibit recombinant active caspase-6 in vitro | inhibition of the activity of R-Csp-6 by extracts from treated neurons ([2]; neurons treated 6 hours, 1-100 nM, 10 μg protein): 40-60% | time of exposure at which CIF activity is maximal ([2]; time response curve): 1 h | time of exposure to neurons until CIF activity is induced ([2]; time response curve): ≤ 10 min | Endogenous Csp-6 Specific Activity ([6]; 1 nM): 4.02 (0.02) pmoles/μg protein/min. | Csp-6 activity remaining (% of control) ([6]; 1 nM): 63% | Endogenous Csp-6 Specific Activity ([6]; 10 nM): 4.84 (0.03) pmoles/μg protein/min. | Csp-6 activity remaining (% of control) ([6]; 10 nM): 76% | Endogenous Csp-6 Specific Activity ([6]; 100 nM): 5.06 (0.01) pmoles/μg protein/min. | Csp-6 activity remaining (% of control) ([6]; 100 nM): 80%

C[C@]12CC[C@@H]3c4ccc(O)cc4CC[C@H]3[C@@H]1CC[C@H]2O [17-α-estradiol]
R-Csp-6 Specific Activity (R-Csp-6; 10 nM): 7.19 (0.01) nmoles/μg protein/min. | R-Csp-6 activity remaining (% of control) (R-Csp-6; 10 nM): 117% | protection against R-Csp-6 ([1]; 10 nM, 48 hours, 5 pg R-Csp-6/cell): do not protect significantly | inhibition of active caspase-6 by extracts from treated neurons ([2]; 1, 10, or 100 nM, neurons treated 6 hours): neither 1, 10, or 100 nM 17-α-estradiol significantly inhibit active caspase-6 | Endogenous Csp-6 Specific Activity ([6]; 10 nM): 7.13 (0.06) pmoles/μg protein/min. | Csp-6 activity remaining (% of control) ([6]; 10 nM): 112%

C[C@@H]1C[C@@H]([C@H](O)CC2CC(=O)NC(=O)C2)C(=O)[C@@H](C)C1 [cycloheximide]
protein translation in neurons [7]: greatly inhibit protein translation | effect on 17-β-estradiol-mediated neuroprotection ([1]; 5-20 μg/ml with 10 nM 17-β-estradiol, 48 hours): no effect | effect on 17-β-estradiol induction of CIF ([2]; 5-20 μg/ml with 10 nM 17-β-estradiol, 6 hours): no effect

CC/C(=C(/CC)c1ccc(O)cc1)c1ccc(O)cc1 [DES, diethylstilbesterol]
effect on 17-β-estradiol neuroprotective effect against caspase-6 ([1]; 48 hours): inhibits | induction of neuroprotection in neurons ([1]; 10 nM, alone, 48 hours): nor induce neuroprotection | effect on 17-β-estradiol induction of CIF ([2]; 10 nM added to 17-β-estradiol): inhibits 17-β-estradiol induction of CIF | induction of CIF in neurons ([2]; 10 nM, alone): Neither DES nor EE induce CIF
